Laboratory results reported in patent publication US20050100519A1, “Topical L-carnitine compositions” (Lonza Inc., priority 2003, published 2005).
Entries after “also recorded” stand apart in the source; their conditions may differ.

Tests used:
skin [1] = assay: Exfoliating efficacy of topical creams by the dansyl chloride method (skin turnover time); type: in vivo, human
Method: The exfoliating efficacy of topical L-carnitine compositions of varying pH was determined as follows. L-carnitine containing reparative/exfoliating creams with a UV sunscreen were prepared as described in Example 2, except (1) phase B included 10.00% urea, 3.0% Natrulon® H-10, and 45.50% deionized water, (2) phase C included (a) 5.6% L-carnitine, (b) q,s. of sodium hydroxide and hydrochloric acid to adjust the pH of the cream to 4, 5, 6, or 7, and (c) 20.1% deionized water.
Each topical composition (creams) was tested as follows. The composition was applied twice daily to skin (approximately 0.2 g/10 cm^2) over a period of 20 days, and the exfoliation was measured using the dansyl chloride method.
The dansyl chloride method is a method of measuring skin turnover time. The method involves first treating the skin with a fluorescent dye (namely, dansyl chloride) and then, with the aid of a UV light, observing the disappearance of the fluorescence over time. When the site no longer fluoresces, the skin is considered to have turned over.
The exfoliating efficacy of the glycolic acid cream was compared to that of the L-carnitine creams at pH 4 and pH 7 described in Example 7 by the procedure described in Example 7.
The exfoliating efficacy of topical compositions (all at pH 7) containing 2.8% or 5.6% L-carnitine or 2.8% or 5.6% racemic (DL) carnitine was determined by the method described in Example 7. The 5.6% L-carnitine composition tested was that described in Example 7. The 5.6% DL-carnitine composition was prepared as described in Example 7, replacing the 5.6% L-carnitine with 5.6% DL-carnitine. The 2.8% L-carnitine and 2.8% DL-carnitine compositions were prepared as described in Example 7, replacing the 5.6% L-carnitine with (1) 2.8% L-carnitine and 2.8% DL-carnitine, respectively, and (2) 2.8% deionized water. DL-carntine is a racemic mixture containing 50% L-carnitine and 50% D-carnitine.
The exfoliating efficacy of topical compositions including (1) papain, (2) 5.6% L-carnitine, (3) 5.6% glycolic acid, or (4) papain with 5.6% L-carnitine was determined as follows.
The compositions were tested by the procedure described in Example 7.

skin [2] = assay: Moisturizing efficacy: water content of the skin measured with a corneometer; type: in vivo, human; settings: 5% in cream
Method: Each composition was applied twice daily to skin (0.2 g/10 cm^2) over a period of 10 days, and the water content of the skin was measured with a corneometer. Untreated skin was also tested as a control.

Row | Molecule | exfoliating efficacy compared with racemic (DL) carnitine (skin [1]; 2.8% or 5.6% creams, all at pH 7 (FIG. 3)) | exfoliating efficacy, effect of composition pH (skin [1]; 5.6% L-carnitine cream at pH 4, 5, 6 or 7, applied twice daily over 20 days (FIG. 1)) | exfoliating efficacy compared with glycolic acid (skin [1]; L-carnitine cream, alone or with papain, vs 5.6% glycolic acid cream pH 4.0 (FIG. 2, FIG. 4)) | ability to exfoliate and reduce the time needed for skin turnover (skin [1]; pH 4-7) | Water content of the skin after 1 day of treatment (skin [2]; twice daily 0.2 g/10 cm^2, 1 day) [%] | Water content of the skin after 2 days of treatment (skin [2]; twice daily 0.2 g/10 cm^2, 2 days) [%] | Water content of the skin after 3 days of treatment (skin [2]; twice daily 0.2 g/10 cm^2, 3 days) [%] | Water content of the skin after 6 days of treatment (skin [2]; twice daily 0.2 g/10 cm^2, 6 days) [%] | Water content of the skin after 8 days of treatment (skin [2]; twice daily 0.2 g/10 cm^2, 8 days) [%] | Water content of the skin after 9 days of treatment (skin [2]; twice daily 0.2 g/10 cm^2, 9 days) [%] | Water content of the skin after 10 days of treatment (skin [2]; twice daily 0.2 g/10 cm^2, 10 days) [%]
1 | C[N+](C)(C)C[C@H](O)CC(=O)[O-] [L-carnitine] | more effective as an exfoliant than racemic carnitine at the same concentration; also recorded: exfoliates skin more effectively and faster than racemic carnitine | most effective at the optimal pH for enzymes, i.e., at a pH around 7; also recorded: exfoliates skin more effectively and faster in a topical composition at a pH of 7 than a similar composition at a pH of 4, 5, or 6 | exfoliates skin more effectively and faster than glycolic acid | exhibits the ability to exfoliate and to significantly reduce the time needed for skin turnover | – | – | – | – | – | – | –
2 | decaglycerol | – | – | – | – | 44.4 | 54.2 | 56.9 | 53.0 | 59.2 | 62.8 | 60.5
